Entries after “also recorded” stand apart in the source; their conditions may differ. Read-outs that look alike come from different tables or passages of the source.
Key:
[1] = tested on: autophagy in mice tissues; experiment: Autophagy induction in tissues of fed mice (LC3 lipidation, p62, GFP-LC3 dots); assay type: in vivo
Description: (§1) C57BL/6 mice (Charles River Laboratory, Lentilly, France) were bred and maintained according to both the FELASA and the Animal Experimental Ethics Committee Guidelines (Val de Marne, France). Mice were housed in a temperature-controlled environment with 12 h light/dark cycles and received food and water ad libitum. For HC-related experiments, mice were injected intraperitoneally with a single 100 mg/kg dose and 6 h later were sacrificed and tissues were immediately frozen in liquid nitrogen. For DCA- and DMKG-related experiments, mice were subjected to 24 h starvation and injected intraperitoneally each 8 h with a 100 mg/kg of either DCA or DMKG solution prepared in PBS. After 24 h of starvation, mice were sacrificed and tissues were immediately frozen in liquid nitrogen after extraction and homogenized two cycles for 20 s at 5,500 rpm using Precellys 24 tissue homogenator (Bertin Technologies, Montigny-le-Bretonneux, France) in a 20 mM Tris buffer (pH 7.4) containing 150 mM NaCl, 1% Triton X-100, 10 mM EDTA and Complete® protease inhibitor cocktail (Roche Applied Science). Tissue extracts were then centrifuged at 12,000 g at 4° C. and supernatants were collected. Protein concentration in the supernatants was evaluated by the bicinchoninic acid technique (BCA protein assay kit, Pierce Biotechnology, Rockford, Ill.). For hydroxycitrate-related weight-loss experiments, autophagy-deficient Atg4b^−/− mice were used. Atg4b^−/− mice have been previously described (Mariño et al., 2010). For HC-, spermidine-, and resveratrol-related experiments (tumour growth) mice were intraperitoneally injected with respectively 100 mg/kg, 50 mg/kg and 100 mg/kg doses at day 8 and day 9. At day 9, mice were intraperitoneally injected with 2 mg/kg single dose of Mitoxanthrone. For starvation related experiment (tumour growth) mice were treated as previously described (Fabrizio et. al., 2010).
To avoid post-mortem autophagy induction, dead mice were immediately perfused with 4% paraformaldehyde (w:v in PBS, pH 7.4). Tissues were then harvested and further fixed with the same solution for at least 4 h, followed by treatment with 15% sucrose (w:v in PBS) for 4 h and with 30% sucrose (w:v in PBS) overnight. Tissue samples were embedded in Tissue-Tek OCT compound (Sakura Finetechnical Co. Ltd., Tokyo, Japan) and stored at −70° C. Five μm-thick tissue sections were prepared with a CM3050 S cryostat (Leica Microsystems GmbH, Wetzlar, Germany), air-dried for 1 h, washed in PBS for 5 min, dried at RT for 30 min, and mounted with VECTASHIELD anti-fading medium. In each organ, the number of GFP-LC3 dots was counted in five independent visual fields from at least five mice using a TCS SP2 confocal fluorescence microscope (Leica Microsystems GmbH).
Six weeks old female C57BL/6, Balb/c and nude athymic mice (Harlan Laboratory, Gannat, France) were bred and maintained according to both the FELASA and the Animal Experimental Inserm Ethics Committee Guidelines (project: 2012-69). Mice were housed in a temperature-controlled environment with 12 h light/dark cycles and received food and water ad libitum. For tumor growth experiments, procedures adopted are described as follows: 3×10^5 tumor cells were subcutaneously inoculated; when tumors became palpable (day −1 before chemotherapy), mice were first intraperitoneally injected with 100 mg/kg Potassium Hydroxycitrate, 10 mg/kg Acetylsalicylic Acid, 30 mg/kg SB204990, 30 mg/kg c646, 5 mg/kg Rapamycin, 25 mg/kg Resveratrol, 50 mg/kg Spermidine. At day 0, mice were intraperitoneally injected with the abovementioned compounds and with 5.17 mg/Kg Mitoxanthrone or 5 mg/kg Oxaliplatin. Tumor size was measured every two days. For starvation experiments, mice underwent 48 hour fasting followed by intreperitoneal injection of chemotherapeutics. […]

[2] = tested on: CT26 derived tumors expressing pmeLUC; experiment: Real time in vivo imaging of ATP release; set-up: species or system mice; conditions: autophagy competent tumors, 48 hours post chemotherapy
Description: BALB/c mice were subcutaneously inoculated with 3×10^5 SCR or ATG5^KD CT26 clones stably expressing pmeLUC probe, and tumor growth was monitored every 2 days. When tumor became palpable (about 8 days after injection), mice were divided in four experimental groups. The first one was intraperitoneally injected with 200 µl PBS and after 48 hs from the first injection, 200 µl of PBS was injected again (control group). The second one was injected the first time with 100 mg/kg hydroxycitrate in 200 µl of PBS and 48 hs later again 100 mg/kg hydroxycitrate in 200 µl of PBS. The third one was intraperitoneally injected with 100 mg/kg hydroxycitrate in 200 µl of PBS and 48 hs later with 100 mg/kg hydroxycitrate in 200 µl of PBS and 5.17 mg/Kg MTX in 200 µl di PBS. The last group were injected the first time with 200 µl of PBS and 48 hs later with 5.17 mg/Kg MTX in 200 µl di PBS. Thereafter, mice were anesthetized and imaged with Xenogen—IVIS® Lumina II (Caliper, Hopkinton, Mass., USA). D-luciferin (150 mg/kg) was intraperitoneally administered to mice 15 minutes before acquisitions, which were performed immediately before and after 48 hrs from compound injections. The regions of interest were identified around tumor sites and in vivo luminescence was identified as photons/s using the Living ImageH software (Caliper).

[3] = tested on: MCA205 tumor; experiment: Growth of transplantable tumors with chemotherapy; assay type: in vivo, mice; conditions: for tumor growth, combined with oxaliplatin: data not shown; for tumor growth, combined with MTX: immunocompetent wild type mice, agent given before and with mitoxanthrone; for tumor growth, combined with MTX, immunodeficient mice: nu/nu (nude athymic) mice
Description: as §1
Six weeks old female C57BL/6, Balb/c and nude athymic mice (Harlan Laboratory, Gannat, France) were bred and maintained according to both the FELASA and the Animal Experimental Inserm Ethics Committee Guidelines (project: 2012-69). Mice were housed in a temperature-controlled environment with 12 h light/dark cycles and received food and water ad libitum. For tumor growth experiments, procedures adopted are described as follows: 3×10^5 tumor cells were subcutaneously inoculated; when tumors became palpable (day −1 before chemotherapy), mice were first intraperitoneally injected with 100 mg/kg Potassium Hydroxycitrate, 10 mg/kg Acetylsalicylic Acid, 30 mg/kg SB204990, 30 mg/kg c646, 5 mg/kg Rapamycin, 25 mg/kg Resveratrol, 50 mg/kg Spermidine. At day 0, mice were intraperitoneally injected with the abovementioned compounds and with 5.17 mg/Kg Mitoxanthrone or 5 mg/kg Oxaliplatin. Tumor size was measured every two days. For starvation experiments, mice underwent 48 hour fasting followed by intreperitoneal injection of chemotherapeutics. For autophagy induction study, 6 hours after CRMs administration, mice were sacrificed and tissues were snap-frozen in liquid nitrogen after extraction and homogenized two cycles for 20 s at 5,500 rpm using Precellys 24 tissue homogenator (Bertin Technologies, Montigny-le-Bretonneux, France) in a 20 mM Tris buffer (pH 7.4) containing 150 mM NaCl, 1% Triton X-100, 10 mM EDTA and Complete® protease inhibitor cocktail (Roche Applied Science, Penzberg, Germany). Tissue extracts were then centrifuged at 12,000 g at 4° C. and supernatants were collected. Protein concentration in the supernatants was evaluated by the bicinchoninic acid technique (BCA protein assay kit, Pierce Biotechnology, Rockford, US.

SMILES	autophagy in vivo (LC3 lipidation, p62, GFP-LC3) [1]	autophagy in vivo (LC3 lipidation, p62, GFP-LC3) ([1]; listed as Hydroxycitrate)	autophagy in vivo (LC3 lipidation, p62, GFP-LC3) ([1]; listed as hydroxycitrate)	extracellular ATP release in vivo, combined with MTX [2]	tumor growth, combined with MTX, autophagy-deficient tumors ([3]; MCA205 cells with Atg5 or Atg7 shRNA)	tumor growth, combined with oxaliplatin [3]	tumor growth, combined with oxaliplatin ([3]; listed as hydroxycitrate)	tumor growth, combined with MTX [3]	tumor growth, combined with MTX ([3]; listed as hydroxycitrate)	tumor growth, combined with MTX, immunodeficient mice [3]	tumor growth, combined with MTX, CD39-expressing tumors ([3]; tumors engineered to express the ecto-ATPase CD39, data not shown)	tumor growth, combined with MTX ([3]; listed as C646)
O=C(O)CC(O)(C(=O)O)C(O)C(=O)O (stereo not drawn) [HC, hydroxycitrate]	induced an increase in autophagic flux in vivo; also recorded: strongly stimulated autophagy both in vitro and in vivo; also recorded: triggered a systemic autophagic response comparable to that induced by starvation; also recorded: similarly efficient as a starvation period of 48 h	elicits autophagy in mice muscle after 6 hours	triggered a systemic autophagic response comparable to that induced by starvation	significantly enhances ATP release; also recorded: higher level of extracellular ATP accumulation	tumor growth control is lost; also recorded: largely therapy-resistant	caused superior tumor growth reduction, but only in WT, not in nu/nu mice	improved the therapeutic outcome of treatments with MTX (FIG. 8G) or oxaliplatin	mimics the effects of 48 h fasting in delaying subcutaneous MCA205 tumor growth; also recorded: improves the efficacy of chemotherapy and significantly reduces tumor growth of MCA205 cells in wild type; also recorded: similarly improved tumor growth reduction by MTX; also recorded: more efficient than monotherapy with MTX	enhanced the tumor growth-inhibitory effect of chemotherapy as efficiently as did starvation; also recorded: improved the therapeutic outcome of treatments with MTX	not in immunodeficient nu/nu mice	lost its therapeutic efficacy	–
CC1=NN(c2ccc(C(=O)O)cc2)C(=O)/C1=C\c1ccc(-c2cc(C)c(C)cc2[N+](=O)[O-])o1 [c646]	elicits autophagy in mice muscle after 6 hours; also recorded: induced autophagy both in vitro, in cultured cells, and in vivo, in mice	–	–	–	–	–	–	can enhance chemotherapy efficacy	–	failed	–	HC could be replaced

Source: patent US11040052B2, “Methods and pharmaceutical compositions for modulating autophagy in a subject in need thereof” (INSERM (INSTITUT NATIONAL DE LA SANTE ET DE LA RECHERCHE …, priority 2013, dated 2021)
